ChEMBL document CHEMBL3885881, “DrugMatrix”

Species: Rattus norvegicus
Experiment: DrugMatrix - Regimen: Daily Repeat
Assay type: toxicity, organism-based, Sprague-Dawley
Parameters: regimen Daily Repeat, gender Male, age 6-8 weeks
Conditions: in vivo, po, route oral GAVAGE, […]; for ABSOLUTE BASOPHIL / ABSOLUTE EOSINOPHIL / ABSOLUTE LYMPHOCYTE / ABSOLUTE MONOCYTE / ABSOLUTE SEGMENTED NEUTROPHIL / BASOPHIL / EOSINOPHIL / ERYTHROCYTE COUNT / HEMATOCRIT / HEMOGLOBIN / LEUKOCYTE COUNT / LYMPHOCYTE / MEAN CORPUSCULAR HEMOGLOBIN / MEAN CORPUSCULAR HEMOGLOBIN CONCENTRATION / MEAN CORPUSCULAR VOLUME / MONOCYTE / NEUTROPHIL / NUCLEATED RED BLOOD CELLS / PLATELET COUNT: tissue Blood; for ALANINE AMINOTRANSFERASE / ALBUMIN / ALKALINE PHOSPHATASE / ASPARTATE AMINOTRANSFERASE / BLOOD UREA NITROGEN / CARBON DIOXIDE / CHLORIDE / CHOLESTEROL / CREATINE PHOSPHOKINASE / CREATININE / GLUCOSE / LACTATE DEHYDROGENASE / LIPASE / PHOSPHORUS / POTASSIUM / SODIUM / TOTAL BILIRUBIN / TOTAL PROTEIN / URIC ACID: tissue Plasma
[1] = 0 mg/kg, 72 h, dose level Control, time 3 day
[2] = 0 mg/kg, 120 h, dose level Control, time 5 day
[3] = 3 mg/kg, 72 h, dose level Low, time 3 day

## Cc1cccc(Nc2ccncc2S(=O)(=O)NC(=O)NC(C)C)c1 [TORSEMIDE]
[1]
  ABSOLUTE BASOPHIL: 0 CELLS/uL
  ABSOLUTE EOSINOPHIL: 41.83 CELLS/uL
  ABSOLUTE LYMPHOCYTE: 8545.5 CELLS/uL
  ABSOLUTE MONOCYTE: 240 CELLS/uL
  ABSOLUTE SEGMENTED NEUTROPHIL: 906 CELLS/uL
  BASOPHIL: 0%
  EOSINOPHIL: 0.33%
  ERYTHROCYTE COUNT: 5.6 x10E6/uL
  HEMATOCRIT: 35.4%
  HEMOGLOBIN: 13.42 G/DL
  LEUKOCYTE COUNT: 9.73 x10E3/uL
  LYMPHOCYTE: 87.83%
  MEAN CORPUSCULAR HEMOGLOBIN: 23.98 pg
  MEAN CORPUSCULAR HEMOGLOBIN CONCENTRATION: 37.92 G/DL
  MEAN CORPUSCULAR VOLUME: 63.3 fL
  MONOCYTE: 2.5%
  NEUTROPHIL: 9.33%
  NUCLEATED RED BLOOD CELLS: 0 /100WBC
  PLATELET COUNT: 1032 x10E3/uL
  ALANINE AMINOTRANSFERASE: 72.83 u/L
  ALBUMIN: 4 G/DL
  ALKALINE PHOSPHATASE: 322.83 u/L
  ASPARTATE AMINOTRANSFERASE: 102.67 u/L
  BLOOD UREA NITROGEN: 12 mg/dL
  CARBON DIOXIDE: 34.33 mmol/L
  CHLORIDE: 97.67 MEQ/L
  CHOLESTEROL: 82.5 mg/dL
  CREATINE PHOSPHOKINASE: 410.33 u/L
  CREATININE: 0.18 mg/dL
  GLUCOSE: 164.5 mg/dL
  LACTATE DEHYDROGENASE: 119.5 u/L
  LIPASE: 11.83 u/L
  PHOSPHORUS: 9.52 mg/dL
  POTASSIUM: 5.56 MEQ/L
  SODIUM: 142.48 MEQ/L
  TOTAL BILIRUBIN: 0.18 mg/dL
  TOTAL PROTEIN: 5.77 G/DL
  URIC ACID: 0.48 mg/dL
[2]
  ABSOLUTE BASOPHIL: 0 CELLS/uL
  ABSOLUTE EOSINOPHIL: 0 CELLS/uL
  ABSOLUTE LYMPHOCYTE: 9065 CELLS/uL
  ABSOLUTE MONOCYTE: 341.33 CELLS/uL
  ABSOLUTE SEGMENTED NEUTROPHIL: 527 CELLS/uL
  BASOPHIL: 0%
  EOSINOPHIL: 0%
  ERYTHROCYTE COUNT: 5.25 x10E6/uL
  HEMATOCRIT: 34.08%
  HEMOGLOBIN: 13.5 G/DL
  LEUKOCYTE COUNT: 9.93 x10E3/uL
  LYMPHOCYTE: 91.17%
  MEAN CORPUSCULAR HEMOGLOBIN: 25.7 pg
  MEAN CORPUSCULAR HEMOGLOBIN CONCENTRATION: 39.62 G/DL
  MEAN CORPUSCULAR VOLUME: 64.93 fL
  MONOCYTE: 3.33%
  NEUTROPHIL: 5.5%
  NUCLEATED RED BLOOD CELLS: 0 /100WBC
  PLATELET COUNT: 1077.5 x10E3/uL
  ALANINE AMINOTRANSFERASE: 57.83 u/L
  ALBUMIN: 4.07 G/DL
  ALKALINE PHOSPHATASE: 319.17 u/L
  ASPARTATE AMINOTRANSFERASE: 83.33 u/L
  BLOOD UREA NITROGEN: 13.67 mg/dL
  CARBON DIOXIDE: 30.83 mmol/L
  CHLORIDE: 98.33 MEQ/L
  CHOLESTEROL: 64.83 mg/dL
  CREATINE PHOSPHOKINASE: 263.67 u/L
  CREATININE: 0.2 mg/dL
  GLUCOSE: 182.83 mg/dL
  LACTATE DEHYDROGENASE: 124 u/L
  LIPASE: 10.5 u/L
  PHOSPHORUS: 10 mg/dL
  POTASSIUM: 5.78 MEQ/L
  SODIUM: 142.48 MEQ/L
  TOTAL BILIRUBIN: 0.2 mg/dL
  TOTAL PROTEIN: 6 G/DL
  URIC ACID: 0.7 mg/dL
[3]
  ABSOLUTE BASOPHIL: 0 CELLS/uL
  ABSOLUTE EOSINOPHIL: 53.33 CELLS/uL
  ABSOLUTE LYMPHOCYTE: 14854 CELLS/uL
  ABSOLUTE MONOCYTE: 155 CELLS/uL
  ABSOLUTE SEGMENTED NEUTROPHIL: 1071 CELLS/uL
  BASOPHIL: 0%
  EOSINOPHIL: 0.33%
  ERYTHROCYTE COUNT: 5.34 x10E6/uL
  HEMATOCRIT: 33.73%
  HEMOGLOBIN: 13.07 G/DL
  LEUKOCYTE COUNT: 16.13 x10E3/uL
  LYMPHOCYTE: 92%
  MEAN CORPUSCULAR HEMOGLOBIN: 24.43 pg
  MEAN CORPUSCULAR HEMOGLOBIN CONCENTRATION: 38.7 G/DL
  MEAN CORPUSCULAR VOLUME: 63.07 fL
  MONOCYTE: 1%
  NEUTROPHIL: 6.67%
  NUCLEATED RED BLOOD CELLS: 0 /100WBC
  PLATELET COUNT: 969.67 x10E3/uL
  ALANINE AMINOTRANSFERASE: 67.33 u/L
  ALBUMIN: 3.93 G/DL
  ALKALINE PHOSPHATASE: 375.67 u/L
  ASPARTATE AMINOTRANSFERASE: 84.33 u/L
  BLOOD UREA NITROGEN: 11.33 mg/dL
  CARBON DIOXIDE: 26.67 mmol/L
  CHLORIDE: 101.33 MEQ/L
  CHOLESTEROL: 69.33 mg/dL
  CREATINE PHOSPHOKINASE: 255 u/L
  CREATININE: 0.29 mg/dL
  GLUCOSE: 162 mg/dL
  LACTATE DEHYDROGENASE: 201 u/L
  LIPASE: 11.67 u/L
  PHOSPHORUS: 10.23 mg/dL
  POTASSIUM: 5.87 MEQ/L
  SODIUM: 143.83 MEQ/L
  TOTAL BILIRUBIN: 0.2 mg/dL
  TOTAL PROTEIN: 5.6 G/DL
  URIC ACID: 0.93 mg/dL
